Assay results from the supplement of paper PMC3974653.
Where a name gives a salt, the structure may show the parent alone.

tested on: MTT (mouse pheochromocytoma); assay: IC50 of cell viability (ATP content); conditions: (24 or 48 h)
How it was run: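 Library compounds in DMSO (23 nl by pintool, 8 concentrations, final 0.5 nM to 46 µM) were applied for 24 or 48 hrs to MTT mouse pheochromocytoma cells that had been cultured overnight at 37°C, 5% CO2 in white 1536-well plates. Cell viability was measured by CellTiter-Glo ATP luminescence, read after 15 minutes, with positive-control wells set at 100% and DMSO wells at 0%. A four-parameter logistic fit of the normalised signals yielded the IC50.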

Compound | IC50 of cell viability [µM]
CCN(CC)C(=O)[C@@]1(c2ccccc2)C[C@@H]1CN [MILNACIPRAN] | > 46
CCCCCCCCCCCCCCCCOP(=O)([O-])OCC[N+](C)(C)C [MILTEFOSINE] | > 46
Cc1cc(-c2ccccc2)nnc1NCCN1CCOCC1.Cl.Cl [MINAPRINE HYDROCHLORIDE] | > 46
Cl.CN(C)C\1[C@@H]2C[C@H]3CC4=C(C(=CC=C4N(C)C)O)C(=O)\C3=C(O)\[C@]2(O)C(=O)\C(=C1O)C(N)=O (stereo partly specified) [MINOCYCLINE HYDROCHLORIDE] | > 46
Nc1cc(N2CCCCC2)nc(N)[n+]1[O-] [MINOXIDIL] | > 46
O.O.O=C([O-])[C@H](CC(=O)N1C[C@H]2CCCC[C@H]2C1)Cc1ccccc1.O=C([O-])[C@H](CC(=O)N1C[C@H]2CCCC[C@H]2C1)Cc1ccccc1.[Ca+2] [MITIGLINIDE CALCIUM HYDRATE] | > 46
O[C@@H]([C@H](O)[C@H](O)CBr)[C@H](O)CBr [MITOBRONITOL] | > 46
COc1cc2c(cc1OC)[C@@H](Cc1cc(OC)c(OC)c(OC)c1)[N+](C)(CCCOC(=O)CC/C=C/CCC(=O)OCCC[N+]1(C)CCc3cc(OC)c(OC)cc3[C@H]1Cc1cc(OC)c(OC)c(OC)c1)CC2 (stereo partly specified) [MIVACURIUM CHLORIDE] | > 46
CN(c1nccc(O)n1)C1CCN(c2nc3ccccc3n2Cc2ccc(F)cc2)CC1 [MIZOLASTINE] | > 46
CN(C)C(=O)CCSC(SCCC(=O)[O-])c1cccc(/C=C/c2ccc3ccc(Cl)cc3n2)c1 (stereo unspecified) [MK-571] | > 46
NC1(CCC1)C2=CC=C(C=C2)C3=C(C=C/4C(=N3)\C=C/N5C(=O)N\N=C45)C6=CC=CC=C6 [MK-2206] | > 46
O=C(NCCN1CCOCC1)c1ccc(Cl)cc1 [MOCLOBEMIDE] | > 46
NC(=O)C[S+]([O-])C(c1ccccc1)c1ccccc1 (stereo unspecified) [MODAFINIL] | > 46
CCOC(=O)C(CCc1ccccc1)NC(C)C(=O)N1Cc2cc(OC)c(OC)cc2CC1C(=O)O (stereo unspecified) [MOEXIPRIL HYDROCHLORIDE] | > 46
COc1ccc(-c2noc(CC(=O)O)c2-c2ccc(OC)cc2)cc1 [MOFEZOLAC] | > 46
O=C(CCCN1CCN(c2ccc(F)cc2)CC1)NC1c2ccccc2CSc2ccccc21 (stereo unspecified) [MONATEPIL MALEATE] | > 46
CCCCCCCC(=O)OCC(O)CO (stereo unspecified) [MONOCTANOIN] | > 46
Cc1ncc(C[n+]2csc(CCOP(=O)(O)O)c2C)c(N)n1 [MONOPHOSPHOTHIAMINUM] | > 46
CC(C)(O)c1ccccc1CC[C@H](SCC1(CC(=O)[O-])CC1)c1cccc(/C=C/c2ccc3ccc(Cl)cc3n2)c1 [MONTELUKAST SODIUM] | > 46
c1ccc2sc(SN3CCOCC3)nc2c1 [MORPHOLINYLMERCAPTOBENZOTHIAZOLE] | > 46
CCOc1cc(N)c(Cl)cc1C(=O)NCC1CN(Cc2ccc(F)cc2)CCO1 (stereo unspecified) [MOSAPRIDE CITRATE] | > 46
O=C(O)C(O)C(O)C(O)C(O)C(=O)O (stereo unspecified) [MUCIC ACID] | > 46

Compound | IC50 of cell viability [µM]
C/C(=C\C(=O)OCCCCCCCCC(=O)O)C[C@@H]1OC[C@H](C[C@@H]2O[C@H]2[C@@H](C)[C@H](C)O)[C@@H](O)[C@H]1O [MUPIROCIN] | > 46
CCCCCCCCCCCCCCNCCO [MYRALACTUM] | > 46
CO[C@@H]1[C@@H]([C@H](C)[C@@H]2O[C@@]3(CC[C@@](C)([C@H]4CC[C@@](C)([C@H]5O[C@H]([C@H]6O[C@](C)(O)[C@H](C)C[C@@H]6C)C[C@H]5O[C@H]5C[C@@H](OC)[C@H](OC)[C@@H](C)O5)O4)O3)C[C@@H](O)[C@@H]2C)O[C@@](O)(CC(=O)[O-])[C@H](C)[C@H]1OC [Maduramicin ammonium] | > 46
NCc1ccc([S+](N)(=O)[O-])cc1 [Mafenide hydrochloride] | > 46
CCOC(=O)CC(SP(=S)(OC)OC)C(=O)OCC (stereo unspecified) [Malathion] | > 46
O=C(O)/C=C/C(=O)Nc1ccc([S+](=O)([O-])Nc2nccs2)cc1 [Maleilsulfatiazol] | > 46
OCC1OC(OC2C(CO)OC(OC3C(CO)OC(O)C(O)C3O)C(O)C2O)C(O)C(O)C1O (stereo unspecified) [Maltotriose] | > 46
O=C1OC2C(O)C(O)OC2C1O (stereo unspecified) [Mannuronic acid lactone] | > 46
Cc1nnc(C(C)C)n1C1C[C@H]2CC[C@@H](C1)N2CC[C@H](NC(=O)C1CCC(F)(F)CC1)c1ccccc1 (stereo partly specified) [Maraviroc] | > 46
CN1CCN(c2c(F)cc3c(=O)c(C(=O)O)cn4c3c2OCN4C)CC1 [Marbofloxacin] | > 46
C=C1/C(=C\C=C2/CCC[C@@]3(C)[C@@H]([C@H](C)OCCC(C)(C)O)CC[C@@H]23)C[C@@H](O)C[C@@H]1O [Maxacalcitol] | > 46
CC(N[NH3+])c1ccccc1 (stereo unspecified) [Mebanazine] | > 46
CCN(CCCCOC(=O)c1ccc(OC)c(OC)c1)[C@@H](C)Cc1ccc(OC)cc1 [Mebeverine hydrochloride] | > 46
CN1CCc2c(c3ccccc3n2Cc2ccccc2)C1.CN1CCc2c(c3ccccc3n2Cc2ccccc2)C1.O=[S+]([O-])(O)c1cccc2c([S+](=O)([O-])O)cccc12 [Mebhydroline 1,5-naphtalenedisulfonate] | > 46
CCOC(=O)c1c(C)n(C)c2ccc(O)cc12 [Mecarbinate] | > 46
COC(=O)[C@@H](N)CS [Mecisteina] | > 46
CN(C)[C@H]\1[C@@H]2[C@@H](O)[C@@H]\3C(=C)C4=C(Cl)C=CC(=C4C(=O)C3=C(\O)[C@@]2(O)C(=O)\C(=C1O)C(N)=O)O.OC(=O)C5=C(O)C=CC(=C5)[S+](O)([O-])=O [Meclocycline sulfosalicylate] | > 46
Cc1ccc(Cl)c(Nc2ccccc2C(=O)[O-])c1Cl.O.[Na+] [Meclofenamic acid sodium salt monohydrate] | > 46
CN(C)CCOC(=O)COc1ccc(Cl)cc1 [Meclofenoxate hydrochloride] | > 46
CC/1=N/C2=CC=CC=C2C(=O)N1C3=C(Cl)C=CC=C3 [Mecloqualone] | > 46
Cc1cccc(CN2CCN([C@@H](c3ccccc3)c3ccc(Cl)cc3)CC2)c1 [Meclozine dihydrochloride] | > 46
C/C1=C2/N=C(C=C3N=C(/C(C)=C4\[N-][C@@H]([C@H](CC(N)=O)[C@]4(C)CCC(=O)NC[C@@H](C)OP(=O)([O-])O[C@@H]4[C@@H](O)[C@H](n5cnc6cc(C)c(C)cc65)O[C@@H]4CO)[C@@]4(C)N=C1[C@H](CCC(N)=O)[C@@]4(C)CC(N)=O)[C@H](CCC(N)=O)C3(C)C)[C@@H](CCC(N)=O)[C@@]2(C)CC(N)=O.[CH3-].[Co+3] [Mecobalamin] | > 46

Compound | IC50 of cell viability [µM]
CN1CCN=C(c2ccccc2)c2cc(Cl)ccc21 [Medazepam] | > 46
Cc1cccc(C(C)c2cnc[nH]2)c1C (stereo unspecified) [Medetomidine hydrochloride] | > 46
CC(=O)C1(O)CCC2C3CC(C)C4=CC(=O)CCC4(C)C3CCC21C (stereo unspecified) [Medroxyprogesterone] | > 46
C[C@H]/1C[C@H]2[C@H]3CC[C@@H](C(C)=O)[C@]3(C)C[C@@H](O)[C@@H]2[C@]4(C)CCC(=O)\C=C14 [Medrysone] | > 46
Cc1cccc(Nc2ccccc2C(=O)O)c1C [Mefenamic acid] | > 46
CC(=O)O[C@@]1(CC[C@@H]2[C@@H]3\C=C(C)/C4=C/C(=O)CC[C@@]4(C)[C@H]3CC[C@@]12C)C(C)=O [Megestrol acetate] | > 46
CNC[C@H](O)[C@@H](O)[C@H](O)[C@H](O)CO [Meglumine] | > 46
Cc1cnc(NC(=O)C2C(=O)c3ccccc3[S+](=O)([O-])N2C)s1 (stereo unspecified) [Meloxicam] | > 46
N[C@@H](Cc1ccc(N(CCCl)CCCl)cc1)C(=O)O [Melphalan] | > 46
CC1(S(=O)(=O)[O-])CC(=O)c2ccccc2C1=O (stereo unspecified) [Menadione sodium bisulfite] | > 46
COc1ccc(C(=O)CCC(=O)O)c2ccccc12 [Menbutone] | > 46
C[N+]1(C)CCC[C@H](OC(=O)C(O)(c2ccccc2)c2ccccc2)C1 [Mepenzolate bromide] | > 46
COc1ccccc1OCC1CNC(=O)O1 (stereo unspecified) [Mephenoxalone] | > 46
CNC(C)(C)Cc1ccccc1 [Mephentermine hemisulfate] | > 46
CCC1(c2ccccc2)C(=O)NC(=O)N(C)C1=O (stereo unspecified) [Mephobarbital] | > 46
[O-][n+]1cccc(CO)c1 [Mepiroxol] | > 46
Cc1ccc2c(n1)Oc1ccc(C(C)C(=O)OCC(=O)N(C)C)cc1C2 (stereo unspecified) [Mepranoprofen arbamel] | > 46
C[C@H]1C[C@H]2[C@@H]3CCC4=CC(=O)C=C[C@]4(C)[C@H]3C(=O)C[C@]2(C)[C@@]1(O)C(=O)CO [Meprednisone] | > 46
CCCC(C)(COC(N)=O)COC(N)=O [Meprobamate] | > 46
CCCNC(C)(C)COC(=O)c1ccccc1 [Meprylcaine hydrochloride] | > 46
CC[C@]1(c2cccc(O)c2)CCCCN(C)C1 [Meptazinol hydrochloride] | > 46
c1ccc2c(c1)Sc1ccccc1N2CC1CN2CCC1CC2 (stereo unspecified) [Mequitazine] | > 46
